Test results as given in patent US4613618A, “Method for treating disorders of lipid metabolism using benzene sulfonamides” (Choay S.A., priority 1981, dated 1986).

Key:
[1] = system: atherosclerosis inducing diet (cholesterol, cholic acid, vitamine D2); assay: Atherosclerosis inducing diet: biochemical exams; type: in vivo, Wistar female rats; parameters: CHOLESTEROL T, % reduction with respect to the control diet / CHOLESTEROL HDL, % with respect to the control diet / CHOLESTEROL LDL, % reduction with respect to the control diet / TRIGLYCERIDES, % reduction with respect to the control diet: concentration or dose not given beside the values
Experimental: (§1) In a second experimental series, tha activity of certain products according to the invention were tested on animals which had received an atherosclerosis inducing diet for a long period.
(§2) The test was carried out on Wistar female rats, of weight about 160-180 g.
(§3) The animals received food coming from the National Nutrition plant of Villemoisson-sur-Orge, France, and denoted by the reference UAR AO3, enriched in cholesterol (0.5%) and in cholic acid (0.5%).
(§4) After 15 days of the atherosclerosis inducing diet and whilst maintaining the animals on an atherosclerosis inducing diet, they were given orally for 4 days 250.000 iu/kg of vitamine D2 marketed under the name Sterogyl 25H, in solution in olive oil.
(§5) Then the products under study were administered for 4 weeks, from the end of the administration of the lesion-inducing agent.
At the end of the study, biochemical examinations were carried out on all the animals [total cholesterol, high density lipoprotein (HDL) and cholesterol low density lipoprotein (LDL), and triglycerides].
(§6) Then the pecentage reduction with respect to the diet controls and the score were calculated, that is to say the ratio of the intensity of the activity of the product tested with respect to that of the activity of clofibrate, reckoned as 1.
Table IX gives the detailed results of the biochemical examination:
(a) in % reduction with respect to the control die;
(b) as score, with respect to the reference product, clofibrate, the latter being counted as 1.

atherosclerosis lesions = assay: Atherosclerosis inducing diet: macroscopic exams (affected animals); type: in vivo, Wistar female rats
Experimental: as §1, §2, §3, §4, §5
(§7) At the end of the study, all the animals still alive were sacrificed, and various organs were removed, particularly the aorta, for histological study of the latter. Two criteria were examined: the number of atherosclerosis areas and the severity of the lesions.
as §6
Table X gives the results of macroscopic examinations:
(a) in % decrease in animals afflicted with lesions;
(b) as score with respect to the reference clofibrate, of which the score was counted as 1.

aorta = assay: Atherosclerosis inducing diet: microscopic observations (aorta, histology); type: in vivo, Wistar female rats; parameters: HISTOLOGICAL QUOTATION, percentage reduction with respect to the diet controls / NUMBER OF ATHEROSCLEROTIC AREAS, percentage reduction with respect to the diet controls: concentration or dose not given beside the values
Experimental: as §1, §2, §3, §4, §5, §7
Calculation of the figures was carried out in the following manner:
as regards the severity of the lesions, a quotation ranging from 0 for absence of a lesion to 5+ for the severest lesions was made, and this for each type of alteration concerned (increase of interlamellar spaces, interruption of elastic laminae, thickening of the elastic laminae, calcium deposition, mucopolysaccharide deposition); then all of the results per batch of animals were added;
as regards the number of atherosclerosis areas, by counting the latter and adding all the figures obtained per batch of animals.
as §6
Table XI gives the microscopic results with histological quotation as regards the severity of the lesions, and the number of atherosclerotic areas.

[2] = Toxicity of Compound No. 1 038, oral route, rats; type: in vivo; settings: rat, in vivo, po
Description: (§8) For Compound No. 1 038, the study of the toxicity has been carried out on rats and on mice to which the product has been administered by the oral route.
(§9) The results (expressed in g/kg) relative to LD50, LD0, and LD100 are gathered in the following table.

rats = assay: Toxicity of Compound No. 1 038, oral route, rats; type: in vivo
Description: as §8, §9

[3] = Toxicity of Compound No. 1 038, oral route, mice; type: in vivo; settings: mouse, in vivo, po
Description: as §8, §9

mice = assay: Toxicity of Compound No. 1 038, oral route, mice; type: in vivo
Description: as §8, §9

[4] = Subacute toxicity of compound No. 1 038; type: in vivo; settings: about one month; 150,500 and 1 000 mg/kg
[5] = Toxicity, general statements; settings: Compound No. 1 038: rats and mice, oral route; medicaments: general

With `O=C(O)CCCNS(=O)(=O)c1cccc(C(F)(F)F)c1` [Compound No. 1038, (trifluoromethyl-3 benzenesulfonylamino)-4 butyric acid] the “TRIGLYCERIDES, % reduction with respect to the control diet” value ([1]; 4 weeks administration) was -20,69%, the “CHOLESTEROL HDL, % with respect to the control diet” value ([1]; HDL, 4 weeks administration) was “+83,33%” and the “CHOLESTEROL LDL, % reduction with respect to the control diet” value ([1]; LDL, 4 weeks administration) was -58,26%. The “CHOLESTEROL HDL, Score with respect to clofibrate” value ([1]; clofibrate counted as 1) was 0,80, the “CHOLESTEROL LDL, Score with respect to clofibrate” value ([1]; clofibrate counted as 1) was 1,05 and the “CHOLESTEROL T, Score with respect to clofibrate” value ([1]; clofibrate counted as 1) was 1,06. The “TRIGLYCERIDES, Score with respect to clofibrate” value ([1]; clofibrate counted as 1) was 0,86, the “CHOLESTEROL T, % reduction with respect to the control diet” value ([1]; total cholesterol, 4 weeks administration) was -51,88% and the “% decrease in animals afflicted with lesions” value (atherosclerosis lesions) was 33,33%. For the same compound, the “Score with respect to the reference clofibrate (animals afflicted with lesions)” value (atherosclerosis lesions; clofibrate counted as 1) was 1,83, the “AFFECTED ANIMALS %” value (atherosclerosis lesions; macroscopic exams, TEM-diet 100) was 66,67% and the “NUMBER OF ATHEROSCLEROTIC AREAS, percentage reduction with respect to the diet controls” value (aorta) was 78,18%. For the same compound, the “NUMBER OF ATHEROSCLEROTIC AREAS” value (aorta; TEM-diet 160) was 35%, the “HISTOLOGICAL QUOTATION, score with respect to clofibrate” value (aorta; clofibrate counted as 1) was 1,06 and the “NUMBER OF ATHEROSCLEROTIC AREAS, score with respect to clofibrate” value (aorta; clofibrate counted as 1) was 1,42. For the same compound, the “HISTOLOGICAL QUOTATION, percentage reduction with respect to the diet controls” value (aorta; severity of the lesions) was 66,31%, the “HISTOLOGICAL QUOTATION” value (aorta; severity of the lesions, TEM-diet 132) was 44% and the LD50 ([2]; female) was 15500 mg/kg. The LD50 ([2]; male) was 13000 mg/kg, the LD0 (rats; female) was 5000 mg/kg and the LD100 (rats; female) was > 20000 mg/kg. For the same compound, the LD0 (rats; male) was 5000 mg/kg, the LD100 (rats; male) was 20000 mg/kg and the LD50 ([3]; female) was 6600 mg/kg. It also gave an LD50 ([3]; male) of 6000 mg/kg, an LD0 (mice; female) of 5000 mg/kg and an LD100 (mice; female) of 9000 mg/kg. The LD0 (mice; male) was 4000 mg/kg, the LD100 (mice; male) was 9000 mg/kg and the therapeutic index [4] was “very satisfactory”. The “toxicity (in words)” value [5] was “presents no toxicity”.
